PubChem BioAssay (NCI)
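Method: 48-hour compound exposure of cells in 96-well plates, five concentrations, linear interpolation of endpoints. GI50 = concentration required for 50% inhibition of growth. TGI is the concentration that stops growth completely.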

Tests used:
Experiment in all cases: DTP human tumour cell line panel, 48 h
[1] = test system: SF-268 CNS
[2] = test system: SK-MEL-2 melanoma
[3] = test system: HT29 colon
[4] = test system: T-47D breast
[5] = test system: RXF 393 renal
[6] = test system: OVCAR-3 ovarian
[7] = test system: ACHN renal
[8] = test system: MCF7 breast
[9] = test system: BT-549 breast
[10] = test system: SW-620 colon
[11] = test system: SK-MEL-5 melanoma
[12] = test system: SK-OV-3 ovarian
[13] = test system: MALME-3M melanoma
[14] = test system: CCRF-CEM leukemia
[15] = test system: HCC-2998 colon
[16] = test system: UACC-257 melanoma
[17] = test system: SN12C renal
[18] = test system: LOX IMVI melanoma
[19] = test system: HS 578T breast
[20] = test system: SNB-19 CNS
[21] = test system: OVCAR-5 ovarian
[22] = test system: COLO 205 colon
[23] = test system: UACC-62 melanoma
[24] = test system: NCI-H522 lung
[25] = test system: A549 NSCLC
[26] = test system: KM12 colon
[27] = test system: CAKI-1 renal
[28] = test system: NCI-H226 lung
[29] = test system: HCT-116 colon
[30] = test system: HOP-62 NSCLC
[31] = test system: OVCAR-8 ovarian
[32] = test system: HL-60(TB) leukemia
[33] = test system: U251 CNS
[34] = test system: IGROV1 ovarian
[35] = test system: NCI-H460 lung
[36] = test system: A498 renal
[37] = test system: SR leukemia
[38] = test system: SNB-75 CNS
[39] = test system: OVCAR-4 ovarian
[40] = test system: HOP-92 NSCLC
[41] = test system: EKVX NSCLC
[42] = test system: MDA-MB-435
[43] = test system: 786-0 renal
[44] = test system: UO-31 renal
[45] = test system: DU-145 prostate
[46] = test system: TK-10 renal
[47] = test system: K-562 leukemia
[48] = test system: NCI-H23 lung
[49] = test system: PC-3 prostate
[50] = test system: MOLT-4 leukemia
[51] = test system: M14 melanoma
[52] = test system: MDA-MB-231 breast
[53] = test system: SK-MEL-28 melanoma
[54] = test system: SF-295 CNS
[55] = test system: SF-539 CNS
[56] = test system: NCI/ADR-RES ovarian

For `CCN(CC)CCOc1nc2c3ccc(Cl)cc3nn2c2ccccc12`, the GI50 [1] was 2.89 µM, the TGI [1] was 11 µM and the GI50 [2] was 2.16 µM. For the same molecule, the TGI [2] was 4.94 µM, the GI50 [3] was 2.04 µM and the TGI [3] was 9.9 µM. The GI50 [4] was 3.51 µM, the TGI [4] was 18.8 µM and the GI50 [5] was 1.75 µM. For the same molecule, the TGI [5] was 3.94 µM, the GI50 [6] was 2.86 µM and the TGI [6] was 9.42 µM. It also gave a GI50 [7] of 1.32 µM, a TGI [7] of 3.36 µM and a GI50 [8] of 1.96 µM. For the same molecule, the TGI [8] was 6.08 µM, the GI50 [9] was 3.54 µM and the TGI [9] was 17.5 µM. It also gave a GI50 [10] of 1.42 µM, a TGI [10] of 4.13 µM and a GI50 [11] of 1.73 µM. The TGI [11] was 3.12 µM, the GI50 [12] was 2.49 µM and the TGI [12] was 21.4 µM. It also gave a GI50 [13] of 1.6 µM, a TGI [13] of 3.22 µM and a GI50 [14] of 2.25 µM. The TGI [14] was 12.8 µM, the GI50 [15] was 1.62 µM and the TGI [15] was 3.43 µM. For the same molecule, the GI50 [16] was 1.89 µM, the TGI [16] was 4.02 µM and the GI50 [17] was 2.21 µM. The TGI [17] was 10.1 µM, the GI50 [18] was 1.44 µM and the TGI [18] was 3.05 µM. It also gave a GI50 [19] of 2.59 µM, a TGI [19] of 11.3 µM and a GI50 [20] of 3.28 µM. For the same molecule, the TGI [20] was 36.1 µM, the GI50 [21] was 2.67 µM and the TGI [21] was 10.3 µM. It also gave a GI50 [22] of 1.55 µM, a TGI [22] of 4.55 µM and a GI50 [23] of 1.79 µM. The TGI [23] was 3.7 µM, the GI50 [24] was 2.37 µM and the TGI [24] was 6.43 µM. The GI50 [25] was 1.87 µM, the TGI [25] was 4.63 µM and the GI50 [26] was 1.96 µM. For the same molecule, the TGI [26] was 4.69 µM, the GI50 [27] was 1.45 µM and the TGI [27] was 2.97 µM. It also gave a GI50 [28] of 2.06 µM, a TGI [28] of 10.2 µM and a GI50 [29] of 1.4 µM. It also gave a TGI [29] of 3.53 µM, a GI50 [30] of 2.38 µM and a TGI [30] of 12.5 µM. For the same molecule, the GI50 [31] was 2.64 µM, the TGI [31] was 55.9 µM and the GI50 [32] was 2.06 µM. For the same molecule, the TGI [32] was 5.64 µM, the GI50 [33] was 2.11 µM and the TGI [33] was 5.4 µM. For the same molecule, the GI50 [34] was 1.54 µM, the TGI [34] was 4.62 µM and the GI50 [35] was 2.61 µM. It also gave a TGI [35] of 7.5 µM, a GI50 [36] of 1.62 µM and a TGI [36] of 3.05 µM. It also gave a GI50 [37] of 2.12 µM, a TGI [37] of 15.8 µM and a GI50 [38] of 1.58 µM. The TGI [38] was 8.35 µM, the GI50 [39] was 2.78 µM and the TGI [39] was 9.06 µM. It also gave a GI50 [40] of 1.4 µM, a TGI [40] of 6.41 µM and a GI50 [41] of 2.62 µM. The TGI [41] was 9.71 µM, the GI50 [42] was 1.15 µM and the TGI [42] was 2.79 µM. It also gave a GI50 [43] of 1.69 µM, a TGI [43] of 3.67 µM and a GI50 [44] of 1.07 µM. For the same molecule, the TGI [44] was 2.66 µM, the GI50 [45] was 2.4 µM and the TGI [45] was 6.07 µM. For the same molecule, the GI50 [46] was 3.88 µM, the TGI [46] was 16.1 µM and the GI50 [47] was 2.73 µM. The TGI [47] was greater than 100 µM, the GI50 [48] was 1.81 µM and the TGI [48] was 4.9 µM. For the same molecule, the GI50 [49] was 2.29 µM, the TGI [49] was 9.94 µM and the GI50 [50] was 2.77 µM. For the same molecule, the TGI [50] was greater than 100 µM, the GI50 [51] was 1.76 µM and the TGI [51] was 3.95 µM. The GI50 [52] was 2.02 µM, the TGI [52] was 7.03 µM and the GI50 [53] was 1.89 µM. It also gave a TGI [53] of 3.57 µM, a GI50 [54] of 1.79 µM and a TGI [54] of 4.18 µM. For the same molecule, the GI50 [55] was 1.71 µM, the TGI [55] was 3.84 µM and the GI50 [56] was 1.89 µM. It also gave a TGI [56] of 8.24 µM.
